The text below walks through data of ChEMBL document CHEMBL1158931, “Pseudosemiglabrin, a platelet aggregation inhibitor from tephrosia semiglabra” (J Nat Prod, 1990).

Active and inactive are the calls of the source. No cut-off for these calls is given here.

A short description of assay [1]: Antiplatelet aggregatory activity against U46619-induced human platelet aggregation at 45 ug/ml by turbidimetric method. In kind it is functional.
The subject of assay [2] is Platelet. The assay can be described thus: Antiplatelet aggregatory activity against adenosine diphosphate-induced human platelet aggregation at 44 ug/ml by turbidimetric method. In kind it is functional, cell-based.
A short description of assay [3]: Antiplatelet aggregatory activity against U46619-induced human platelet aggregation by turbidimetric method. The format is functional, cell-based.
In assay [4] the test system is Platelet. The assay can be described thus: Antiplatelet aggregatory activity against adenosine diphosphate-induced human platelet aggregation at 13 ug/ml by turbidimetric method. In kind it is functional, cell-based.
The nature of assay [5]: Antiplatelet aggregatory activity against U46619-induced human platelet aggregation at 6.5 ug/ml by turbidimetric method. The format is functional.

In assay [1], `CC(=O)O[C@H]1[C@@H]2c3c(ccc4c(=O)cc(-c5ccccc5)oc34)O[C@@H]2OC1(C)C` returned an Activity of 70%. Also, the outcome in assay [2] was inactive.

`CC(=O)O[C@H]1[C@H]2c3c(ccc4c(=O)cc(-c5ccccc5)oc34)O[C@H]2OC1(C)C` showed an IC50 in assay [3] of 12.5 µM. The result in assay [4] was inactive. The same molecule gave an Activity in assay [5] of 85%.
